7 compounds from BindingDB's records for doi:10.1016/j.bioorg.2016.04.005 (Comsats Institute of Information Technology, 2016) can be followed below.

Sequence of Urease subunit alpha (P41020 as listed by the source): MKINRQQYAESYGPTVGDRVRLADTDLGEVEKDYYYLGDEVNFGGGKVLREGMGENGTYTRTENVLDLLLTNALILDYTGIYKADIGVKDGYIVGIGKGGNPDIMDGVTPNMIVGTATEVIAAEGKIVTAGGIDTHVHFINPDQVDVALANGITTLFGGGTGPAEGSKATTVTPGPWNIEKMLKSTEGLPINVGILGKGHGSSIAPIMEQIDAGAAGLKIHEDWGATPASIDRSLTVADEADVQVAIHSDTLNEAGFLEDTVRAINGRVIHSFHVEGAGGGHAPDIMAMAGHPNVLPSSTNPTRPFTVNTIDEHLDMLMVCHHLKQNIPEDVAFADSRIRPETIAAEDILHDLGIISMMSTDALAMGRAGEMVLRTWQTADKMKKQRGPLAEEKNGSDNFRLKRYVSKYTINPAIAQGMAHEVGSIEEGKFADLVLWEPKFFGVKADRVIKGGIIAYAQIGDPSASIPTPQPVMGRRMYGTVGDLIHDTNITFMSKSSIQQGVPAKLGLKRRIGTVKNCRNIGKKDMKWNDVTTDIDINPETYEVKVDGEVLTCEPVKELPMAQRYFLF

This test deals with Urease subunit alpha (Sporosarcina pasteurii, UniProt P41020). As to the kind of experiment: Urease Inhibition Assay. The note with it: 30 °C. How it is done:
Reaction mixtures comprising one unit of urease enzyme (B. pasteurii) solution and 55 uL of buffers containing 100 mMol urea were incubated with 5 uL of test compounds (1 mMol concentration) at 30° C for 15 min in 96-well plates. Urease activity was determined by measuring ammonia production using the indophenol'smethod. Momentarily, 45 uL each of phenol reagent and 70 uL of alkali reagent were added to each well. The increasing absorbance at 630 nm was measured after 50 min, using a micro-plate reader (Molecular Devices, USA). All reactions were performed in triplicate in a final volume of 200 uL. The results (change in absorbance per min.) were processed by using the Soft-Max Pro s4.5.Software (Molecular Devices, USA).
The term IC50 denotes the concentration that inhibits the measured activity by half. High values mean lower potency, low ones higher potency. Compound `O=c1oc2ccccc2c(O)c1S(=O)(=O)c1cccc2ccccc12` [3-(1-Naphthosulfonyl)-(4-hydroxycoumarin) (16)] registered an IC50 of 69.5 µM. For `COc1cc(C(=O)c2c(O)c3ccccc3oc2=O)cc(OC)c1OC` [3-(3,4,5-Trimethoxybenzoyl)-(4-hydroxycoumarin) (9)] the value was 11.3 µM. Regarding `CS(=O)(=O)c1c(O)c2ccccc2oc1=O` [3-(Methanesulfonoyl)-(4-hydroxycoumarin) (11)], inhibition was half-maximal at 29.5 µM (IC50).

With `CCCCCCCCCC(=O)c1c(O)c2ccccc2oc1=O` [3-Decanoyl-(4-hydroxycoumarin) (5)], the IC50 was 13 µM. As for `CCCCCCCCCCCC(=O)c1c(O)c2ccccc2oc1=O` [3-Lauroyl-(4-hydroxycoumarin) (6)], the midpoint of inhibition, the IC50, lay at 17.1 µM. With `CCCCCCCCC(=O)c1c(O)c2ccccc2oc1=O` [3-Nonanoyl-(4-hydroxycoumarin) (4)] the figure was 30.9 µM; with `NC(N)=S` [thiocarbamide], 21 µM.
